Reference: US4867737A, “Derivatives of 4-phenyl-4-oxo-2-butenoic acid their preparation process, their use as medicaments and compositions containing them” (Roussel UCLAF, priority 1986, dated 1989)

Columns and labels:
[1] = tested on: total acidity of the gastric secretions; assay: Anti-gastric secretory activity (pylorus ligature, Shay technique); type: in vivo, rat; conditions: male rats, intraduodenal, 10 mg/kg, 3 hours
Experimental: (1) Determination of the anti-gastric secretory activity.
The technique used is described by H. SHAY et al in Gastroenterology 5, 43, 1945.
Male rats are used weighing about 200 g (10 animals per group), deprived of nourishment for 48 hours, but having as much as desired of an 8% glucose solution. The pylorus of the rats is ligatured, the rats having been lightly anesthetized with ether. Then, at the end of the operation, the compounds under test are administered at various doses, or for the control animals, a 0.5% carboxymethyl cellulose solution is administered by intraduodenal route. Then the abdominal incision is sutured.
Three hours later, the animals are killed and their stomachs are removed after ligature of the oesophagus. The gastric juice is removed and centrifuged. Then the volume is measured; and on 100 μl of gastric juice, the total acidity is determined by titration at pH 7 with N/10 sodium hydroxide.
The percentages of variation of total acidity of the gastric secretions are calculated in relation to the results obtained with the control animals.

[2] = tested on: ulcers in the stomachs of the rats; assay: Anti-ulcer activity, ulcer from stress (constraint and cold); type: in vivo, rat; conditions: female rats, by probang, 10 mg/kg
Experimental: (2) Determination of anti-ulcer activity
The technique consists of inducing ulcers in the stomachs of the rats through stress (constraint and cold.)
The technique used is described by E. C. SENAY and R. J. LEVINE, Proc. Soc. Exp. Biol. 124, 1221 (1967).
Female rats weighing 150 g are used (5 animals per group), starved for 48 hours with water "ad libitum" and glucose solution for 8 hours. The animals receive the product under test by a probang, or the control animals receive a 0.5% carboxymethyl cellulose solution.
Two hours later, the animals are wrapped up in a wire-netting jacket, their paws are bound and the whole is placed in a refrigerator at 8° C. for two hours. The rats are freed and killed with ether.
Their stomachs are removed, opened along the greater curvature and examined by means of a binocular magnifier; the seriousness of the lesions is rated from 0 to 3 for each stomach.
For each group of rats the average intensity of the ulcerations is calculated, then for each group the degree of ulceration in relation to the controls is determined.
Product 1 is the product of Example 1; Product p is the product of Example 1 of U.S. Pat. No. 4,473,583.

[3] = Acute toxicity (LD50), oral route; conditions: in vivo, mouse
Experimental: (3) Determination of actute toxicity
The lethal dose 50 (LD50) was evaluated after administration of the products by oral route to a mouse.

Compound | Anti-secretory activity: Acid Concentration (% variation in relation to the controls) [1] | Anti-ulcer activity: Ulceration (% variation in relation to the controls) [2] | LD50 [3]
COc1ccccc1C(=O)/C=C/C(=O)O [Product 1, (E) 4-(2-methoxyphenyl)-4-oxo-2-butenoic acid] | -78% | -80% | 370 mg/kg
O=C(O)C=CC(=O)c1ccccc1 [p] | -66% | -54% | 250 mg/kg
